Assay results: US20250319213A1, “FUNCTIONALIZED BISAMINOTHIOL DERIVATIVES, COMPLEXES WITH THESE BISAMINOTHIOL DERIVATIVES AND USE OF SAID COMPLEXES AS DIAGNOSTICS AND THERAPEUTICS” (ABX ADVANCED BIOCHEMICAL COMPOUNDS – BIOMEDIZINISCHE …, priority 2022, published 2025)

Key:
[1] = molecular target: T1, PSMA (Homo sapiens, UniProt Q04609); test: Direct binding affinity on LNCaP cells (saturation); settings: [99mTc]TcO complex of the listed compound, saturation 0.3-40 nM, 1 h 37° C., mean ± SEM, read-out: Kd [nM] of [99mTc]TcO-complexes
T1 construct: host or cells: LNCaP human prostate carcinoma cells
Protocol: (§1) Competition, saturation and internalization assays were assessed using the high PSMA expressing human prostate carcinoma cell line LNCaP (ATCC® CRL-1740). The cells were grown as monolayer at 37° C. in a humidified atmosphere comprising 5% CO2 and 95% air in RPMI medium including 10% FCS (Merck KGAA, Germany). After washing the confluent cells twice with phosphate buffered saline (PBS) and detaching them with trypsin/EDTA (0.05%/0.02%), the cells were suspended in medium and counted (Casy TT, Omni Life Science, Germany).
For saturation monolayer of LNCaP cells were seeded, 5×10^4 cells/well in 48-well plates two days before the assay. On the day of saturation, after aspirating the medium, 160 μL of medium (for ^99mTc-labeled radioligand with D-mannitol (1 mg/mL)) were pipetted per well, for non-specific binding samples including 100 μM 2-PMPA. After preincubation for 5 min, 40 μL activity ([^68Ga]Ga-PSMA-11 or ^99mTc-labeled radioligand solution) were added (total volume/well: 200 μL). Eight concentrations ranged between 0.3 and 40 nM.
(§2) After 1 hour of incubation at 37° C. both for competition and saturation samples, the supernatants were aspirated and the cells washed twice with cold PBS. The cell lawn was lysed with 500 μL NaOH/SDS (0.1 M/1%) by shaking for 3 to 5 minutes. After transferring the lysates into measuring tubes, the activity of the samples was measured in a gamma counter (2480 Automatic Gamma Counter Wizard 2, Perkin Elmer, USA).
(§3) The half maximal inhibitory concentrations (IC50) and the dissociations constants (Kd) were calculated by fitting the data using a nonlinear curve-fitting program (GraphPad Prism 9). With the Kd value of [^68Ga]Ga-PSMA-11 on LNCaP and the known concentration of [^68Ga]Ga-PSMA-11 in the competition assay the inhibition constants (Ki) was also determined with the curve-fitting program.

[2] = molecular target: T1, PSMA; test: Competitive binding affinity on LNCaP cells against [68Ga]Ga-PSMA-11 (competition); settings: natRe complex of the listed compound, 1 nM [68Ga]Ga-PSMA-11, 1 h 37° C., mean ± SEM
Protocol: as §1
For competition monolayer of LNCaP cells were seeded, 1×10^5 cells/well in 24-well plates two days before the assay. On the day of competition, after aspirating the medium, 100 μL of PBS and, for competition 100 μL of different concentrations of the test compound in PBS (10^−12 to 10^−6 M) were pipetted into the wells, simultaneously to 400 μL of medium including 1 nM of [^68Ga]Ga-PSMA-11.
as §2, §3

[3] = tested on: subcutaneous LNCaP tumor xenografts; test: SPECT/CT and PET/CT imaging in LNCaP tumor bearing mice; type: in vivo; settings: LNCaP xenograft model
Protocol: A prostate cancer xenograft model was generated via subcutaneous injection of human LNCaP cells into the right shoulder of 8-12 week-old male nude mice (Rj:NMRI-Foxn1^nu/nu, Janvier Labs, Le Genest-Saint-Isle, France). Imaging studies were performed when tumors reached a diameter of >6 mm. General anesthesia was induced and maintained with inhalation of 10% (v/v) desflurane in […] oxygen/air. During anesthesia, animals were continuously warmed at 37° C.
Small animal single-photon emission computed tomography (SPECT) was performed using the nanoSPECT/CT scanner (Mediso Medical Imaging Systems) equipped with an APT63 aperture consisting of four M3 multi-pinhole collimators. Each animal received 30 MBq of ^99mTc-labeled compounds delivered in 0.2 mL of Dulbecco's phosphate-buffered saline as a single intravenous injection through a tail vein catheter. Photon emission was recorded using frame times of 60 s (1 h scan: 40-70 min), 90 s (4 h scan, 3.5-4.5 h), and 320 s (20 h scan, 18.5-21.5 h), and binned simultaneously within the 20% energy window of the 140.5 keV photopeak. With each SPECT scan, a corresponding CT image was recorded and used for anatomical referencing and attenuation correction. SPECT images were reconstructed using the Tera-Tomo™ three-dimensional (3D) algorithm at normal range with a voxel size of 0.4 mm and applying corrections for scatter attenuation, and decay.
Small animal positron emission tomography (PET) was performed using the nanoPET/CT scanner (Mediso Medical Imaging Systems). Each animal received 10 MBq of the radiolabeled reference compound [^68Ga]Ga-PSMA-11 delivered in Dulbecco's phosphate-buffered saline as a single intravenous injection through a tail vein catheter. Emission of the 511 keV annihilation photons was recorded continuously at a coincidence mode of 1:5 for 60 min following radiotracer injection. With each PET scan, a corresponding CT image was recorded and used for anatomical referencing and attenuation correction. Three-dimensional list mode data were binned using the 400-600 keV energy window. PET images of the 40-60 min time frame were reconstructed using the Tera-Tomo™ three-dimensional (3D) algorithm with a voxel size of 0.4 mm and applying corrections for random events, scatter, attenuation, and decay.
Three-dimensional VOIs were created applying fixed threshold for delineation of tumor (30%), muscle (0%); and kidneys (39%). Standardized uptake values (SUV=[MBq detected activity/mL tissue]/[MBq injected activity/g body weight], mL/g) were determined and reported as max SUV (VOI-maximum). Time-activity curves were generated and further analyzed using Prism (GraphPad Software, San Diego CA, USA).

[4] = Product stability in mouse plasma (in vitro); type: in vitro ADME; settings: mean ± SD (n = 3-4), normalized to fraction immediately after preparation
Protocol: (§4) In brief, the freshly produced ^99mTc-labeled radioligand solution (10-20 MBq, 20-100 μL) was added to the respective medium (200-400 μL), vortexed quickly, and shook gently at the respective temperature mentioned below. At certain time points, samples were taken, diluted, and measured by radio-RP-HPLC. Hereby, investigation of plasma samples included protein precipitation with the 4-fold volume of an ice-cold mixture of methanol/water (4/1, v/v), intensive shaking (5 min) and centrifugation (14,000 rpm, 10 min), before inspection of the supernatant. In addition, the recovery of extracted activity was calculated after activity measurement of supernatant and residue by a gamma counter.

[5] = Product stability in DPBS at 25° C.; type: physicochemical; settings: DPBS (+Ca2+, +Mg2+), mean ± SD, normalized to fraction immediately after preparation
Protocol: as §4

[6] = Determination of log D values (shake-flask, octanol/medium); type: physicochemical; settings: for LogD (shake-flask, octanol/medium) Na-phosphate pH 7.4: 4.4 mM Na2HPO4, 2.2 mM NaH2PO4, pH 7.4
Protocol: Log D values were determined for different media by the shake-flask method (Andrés, A.; Rosés, M.; Ràfols, C.; Bosch, E.; Espinosa, S.; Segarra, V.; Huerta, J. M. Setup and validation of shake-flask procedures for the determination of partition coefficients (log D) from low drug amounts. Eur. J. Pharm. Sci. 2015, 76, 181-191.). In preparation, octanol was saturated with each of the used buffer solutions and vice versa. To 3 mL of octanol, together with 3 mL of buffer solution 200-300 μL of the ^99mTc-labeled radioligand (15-25 MBq, samples in triplicate) were added and shaken vigorously for 30 min. After centrifugation at 9,000 rpm for 15 min, samples were taken from both separated phases and measured by gamma-counter. Log D values were calculated as the ratio of radioactivity determined in octanol and aqueous phase.

[7] = tested on: LNCaP cells; test: Determination of the internalization (surface binding and internalized activity); type: cell-based, human; settings: 1 h
Protocol: as §1
For internalization LNCaP and PC3 cells were seeded, 1×10^5 cells/well in 24-well plates two days before the assay. On the day of internalization, after aspirating the medium, 100 μL of PBS and, for non-specific binding samples, 100 μL 2-PMPA (100 μM) were pipetted into the wells, followed by 400 μL medium including activity. The concentration of the ^99mTc-labeled radioligands was 25 nM. After 1 h of incubation at 37° C. and adjacent well plates at 4° C., the supernatant was removed and the cells washed with cold PBS. Surface-bound activity was stripped with 4° C. cold acid-wash buffer (0.2 M glycine, pH 2.8) for 5 min. The acid wash buffer was transferred from the plate wells to measuring tubes, as was the PBS buffer after washing once (binding on the surface). Cytosolic activity was determined after treatment with cell lysis buffer (0.1 M NaOH/1% SDS). Cell surface and cytosolic activity were measured separately in a gamma counter. Determination of protein content from cell lysate was performed using a spectrophotometer (NanoDrop, Thermo Fisher Scientific, USA) at an absorbance of 280 nm.

[8] = Product stability at room temperature (without addition of any media); type: physicochemical; settings: no media, radio-RP-HPLC
Protocol: as §4

[9] = as early as 1 hour after injection

T1 sequence (Q04609 whole entry): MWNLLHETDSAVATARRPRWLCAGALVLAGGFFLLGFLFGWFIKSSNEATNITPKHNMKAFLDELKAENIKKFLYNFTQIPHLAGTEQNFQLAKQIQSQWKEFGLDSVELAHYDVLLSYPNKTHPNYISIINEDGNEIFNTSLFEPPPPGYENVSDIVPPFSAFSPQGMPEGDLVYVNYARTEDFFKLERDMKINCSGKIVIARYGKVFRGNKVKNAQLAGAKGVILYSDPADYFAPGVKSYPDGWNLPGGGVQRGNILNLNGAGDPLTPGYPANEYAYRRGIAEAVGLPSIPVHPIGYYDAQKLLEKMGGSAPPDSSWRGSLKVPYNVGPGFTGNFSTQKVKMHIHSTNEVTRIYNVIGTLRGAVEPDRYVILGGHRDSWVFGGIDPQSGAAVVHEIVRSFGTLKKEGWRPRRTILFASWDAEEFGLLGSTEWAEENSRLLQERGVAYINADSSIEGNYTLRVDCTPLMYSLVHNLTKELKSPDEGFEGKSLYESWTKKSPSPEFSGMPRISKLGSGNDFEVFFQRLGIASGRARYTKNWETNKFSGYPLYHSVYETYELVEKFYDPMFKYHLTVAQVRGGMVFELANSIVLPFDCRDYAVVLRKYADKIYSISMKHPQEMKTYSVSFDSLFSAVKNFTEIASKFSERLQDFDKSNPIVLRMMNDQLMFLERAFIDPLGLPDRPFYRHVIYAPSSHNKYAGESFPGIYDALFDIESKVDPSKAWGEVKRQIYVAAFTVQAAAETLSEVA

| Kd [1] [nM] | Ki [2] [nM] | Fraction of radioligand after 6 h in mouse plasma at 37° C. [4] [%] | Fraction of radioligand in DPBS at 25° C., 1 h [5] [%] | Fraction of radioligand in DPBS at 25° C., 2 h [5] [%] | Fraction of radioligand in DPBS at 25° C., 4 h [5] [%] | Fraction of radioligand in DPBS at 25° C., 20 h [5] [%] | LogD (shake-flask, octanol/medium) Na-phosphate pH 7.4 [6] | LogD (shake-flask, octanol/medium) PBS 0.1M pH 7.4 [6] | LogD (shake-flask, octanol/medium) TRIS buffer 0.1M pH 7.4 [6] | SMILES | other results |
| --- | --- | --- | --- | --- | --- | --- | --- | --- | --- | --- | --- |
| 15.5 ± 3.2 | 4.8 ± 3.4 | – | – | – | – | – | – | – | – | CC(C)(S)CNCCN(CCCCC(=O)N[C@@H](Cc1ccccc1)C(=O)N[C@@H](Cc1ccccc1)C(=O)N[C@@H](CCCCNC(=O)CCCCCCC(=O)NCCCC[C@H](NC(=O)N[C@@H](CCC(=O)O)C(=O)O)C(=O)O)C(=O)O)CC(C)(C)S [Compound 1] | – |
| 15.8 ± 9.1 | 7.3 ± 1.6 | – | – | – | – | – | – | – | – | CC(C)(S)CNCCN(CCCCC(=O)N[C@@H](CCCCNC(=O)CCCCCCC(=O)NCCCC[C@H](NC(=O)N[C@@H](CCC(=O)O)C(=O)O)C(=O)O)C(=O)O)CC(C)(C)S [Compound 3] | – |
| 7.2 ± 1.7 | 9.3 ± 0.9 | – | – | – | – | – | – | – | – | CC(C)(S)CNCCN(CCCCC(=O)N[C@@H](CCC(=O)O)C(=O)N[C@@H](CCC(=O)O)C(=O)N[C@H](CCCCNC(=O)CCCCCCC(=O)NCCCC[C@H](NC(=O)N[C@@H](CCC(=O)O)C(=O)O)C(=O)O)C(=O)O)CC(C)(C)S [Compound 5] | pharmacokinetic properties and organ distribution compared to the prior art [3]: faster pharmacokinetic properties and a more favorable organ distribution; tumor-to-kidney ratio [3, 9]: High; tumor-to-muscle ratio [3, 9]: High |
| – | – | 98.3 ± 1.1 | 89.9 ± 2.3 | 97.7 ± 2.3 | 80.7 ± 12.0 | 89.2 ± 2.7 | −2.08 ± 0.01 | −2.16 ± 0.03 | −2.16 ± 0.02 | CC1(C)CN(CCCCC(=O)N[C@@H](Cc2ccccc2)C(=O)N[C@@H](Cc2ccccc2)C(=O)N[C@H](CCCCNC(=O)CCCCCCC(=O)NCCCC[C@H](NC(=O)N[C@@H](CCC(=O)O)C(=O)O)C(=O)O)C(=O)O)CC[N]2CC(C)(C)[S][99Tc]2(=[O])[S]1 (stereo partly shown) [[^99mTc]TcO-2] | – |
| – | – | 98.5 ± 0.8 | 98.2 ± 1.9 | 97.3 ± 3.6 | 98.4 ± 1.0 | 89.1 ± 7.4 | −1.93 ± 0.01 | −2.07 ± 0.01 | −2.08 ± 0.02 | CC1(C)CN(CCCCC(=O)N[C@@H](CCCCNC(=O)CCCCCCC(=O)NCCCC[C@H](NC(=O)N[C@@H](CCC(=O)O)C(=O)O)C(=O)O)C(=O)O)CC[N]2CC(C)(C)[S][99Tc]2(=[O])[S]1 (stereo partly shown) [[^99mTc]TcO-3] | % Internalization, 37° C. ([7]; 37° C.): 35.8%; Internalization, 4° C. (% AD/mg Protein) ([7]; cytosolic activity, 25 nM radioligand, 4° C., mean ± SEM): 0.7 ± 0.2 % AD/mg Protein; Internalization, 37° C. (% AD/mg Protein) ([7]; cytosolic activity, 25 nM radioligand, 37° C., mean ± SEM): 1.0 ± 0.3 % AD/mg Protein; Binding, 4° C. (% AD/mg Protein) ([7]; surface-bound activity, 25 nM radioligand, 4° C., mean ± SEM): 2.1 ± 1.2 % AD/mg Protein; Binding, 37° C. (% AD/mg Protein) ([7]; surface-bound activity, 25 nM radioligand, 37° C., mean ± SEM): 1.8 ± 0.3 % AD/mg Protein; Fraction of radioligand at indicated time point after preparation, 0 h ([8]; 0 h): 96%; Fraction of radioligand at indicated time point after preparation, 2 h ([8]; 2 h): 93%; Fraction of radioligand at indicated time point after preparation, 4 h ([8]; 4 h): 92%; Fraction of radioligand at indicated time point after preparation, 6 h ([8]; 6 h): 91% |
